Laboratory results from article PMC10244465, “Native American ataxia medicines rescue ataxia-linked mutant potassium channel activity via binding to the voltage sensing domain” (Nature Communications, 2023).
Read-outs that look alike come from different tables or passages of the source.

Columns and labels:
wild-type human Kv1.1 = molecular target: T1, wild-type human Kv1.1 (Homo sapiens, UniProt Q09470); test: Two-electrode voltage clamp of oocytes expressing wild-type Kv1.1; format: cell-based; details: for effect on Kv1.1 activity: compound 100 µM; for EM (unclamped oocyte membrane potential) / Slope / V0.5 Normalized tail current: in presence of 100 µM compound
T1 construct: expressed in transfected cells; host or cells: Xenopus laevis oocytes injected with cRNA (pTLNx vector)
Text: Wild-type and mutant Kv1 cDNAs were generated (Genscript, Piscataway, NJ) in the pTLNx expression vector. As previously described, we generated cRNA transcripts encoding human Kv1.1 (wild-type and mutant) and Kv1.2, by in vitro transcription using the mMessage mMachine kit (Thermo Fisher Scientific), after vector linearization, from cDNA sub-cloned into plasmids (pTLNx) incorporating Xenopus laevis β-globin 5’ and 3’ UTRs flanking the coding region to enhance translation and cRNA stability. We injected defolliculated stage V and VI Xenopus laevis oocytes (Xenoocyte, Dexter, MI, US) with Kv1 cRNAs (1–5 ng). We incubated the oocytes at 16 °C in ND96 oocyte storage solution containing penicillin and streptomycin, with daily washing, for 2 days prior to two-electrode voltage-clamp (TEVC) recording.
We performed TEVC at room temperature using an OC-725C amplifier (Warner Instruments, Hamden, CT) and pClamp10 software (Molecular Devices, Sunnyvale, CA) 2 days after cRNA injection as described in the section above. For recording, oocytes we placed in a small-volume oocyte bath (Warner) and viewed with a dissection microscope. We sourced chemicals from Sigma. We studied effects of plant extracts and of compounds, solubilized directly in bath solution (in mM): 96 NaCl, 4 KCl, 1 MgCl2, 1 CaCl2, 10 HEPES (pH 7.6). We introduced extracts or compounds into the oocyte recording bath by gravity perfusion at a constant flow of 1 ml per minute for 3 min prior to recording. Pipettes were of 1–2 MΩ resistance when filled with 3 M KCl. We recorded currents in response to voltage pulses between −80 mV and +40 mV at 10 or 20 mV intervals from a holding potential of −80 mV, to yield current-voltage relationships and examine activation kinetics. To calculate the voltage dependence of activation (V0.5), tail currents were recorded at a voltage pulse of −50 mV immediately following prepulse voltages between −80 mV and +40 mV. We analyzed data using Clampfit (Molecular Devices) and Graphpad Prism software (GraphPad, San Diego, CA, USA), stating values as mean ± SEM. We plotted raw or normalized tail currents vs. prepulse voltage and fitted with a single Boltzmann function:1 g=(A1−A2)/1+exp[V1/2−V/Vs]y+A2 where g is the normalized tail conductance, A1 is the initial value at -∞, A2 is the final value at +∞, V1/2 is the half-maximal voltage of activation and Vs the slope factor.

[1] = design: method as in earlier work; details: following massage with lavender oil; cited from earlier work
wild-type Kv1.1 = test system: wild-type Kv1.1; design: method as in PMID 28391996; details: prepulse current at −50 mV, 10 µM; cited from earlier work
wild-type human Kv1.2 = molecular target: T2, wild-type human Kv1.2 (Homo sapiens, UniProt P16389); test: Two-electrode voltage clamp of oocytes expressing wild-type Kv1.2; format: cell-based
T2 construct: expressed in transfected cells; host or cells: Xenopus laevis oocytes injected with cRNA (pTLNx vector)
Description: We therefore first tested for activity of extracts (diluted 1:50 in bath solution to equal 5 mg plant solid starting material per ml) of each of the three plants on wild-type human Kv1.1 and closely related Kv1.2 expressed in Xenopus laevis oocytes, using manual two-electrode voltage clamp (TEVC). Strikingly, all three extracts altered Kv1 channel activity. […] Pacific ninebark (roots or leaves) had similar effects on Kv1.1 but negligible effects on Kv1.2.
We purchased live Urtica dioica (Common Nettle) from Crimson Sage Nursery (Orleans, CA, USA), cultivated it in Irvine CA, collected the aerial portions (primarily leaves) and then froze them until the day of extraction. We purchased Physocarpus capitatus (Pacific ninebark) live whole plant from Ozark Wildflower Company (Jasper, AR, USA) and separated the roots and aerial parts before extraction of each. We homogenized plant samples using a bead mill with porcelain beads in batches in 50 ml tubes (Omni International, Kennesaw, GA, United States). We purchased certified organic tree bark powders from Mountain Rose Herbs (Eugene, OR, USA) and dry raw Sophora japonica (fine pellets) from Teriya (People’s Republic of China). We purchased bladderwrack kelp extract capsules from Terra Vita (Brampton, Ontario, Canada) and discarded the outer capsule before extraction. We resuspended all plant powders and homogenates in 80% methanol/20% water (100 ml per 5 g solid) and then incubated for 48 h at room temperature, occasionally inverting the bottles to resuspend the extracts. We next filtered the extracts through Whatman filter paper #1 (Whatman, Maidstone, UK), and then removed the methanol using evaporation in a fume hood for 24–48 h at room temperature. We next centrifuged extracts for 10 min at 15 °C, 4000 RCF to remove the remaining particulate matter, followed by storage at −20 °C. On the day of electrophysiological recording, we thawed the extracts and diluted them 1:50 in bath solution (see below), to equal 5 mg plant solid starting material per ml, immediately before use.
Wild-type and mutant Kv1 cDNAs were generated (Genscript, Piscataway, NJ) in the pTLNx expression vector. […]
(§1) We performed TEVC at room temperature using an OC-725C amplifier (Warner Instruments, Hamden, CT) and pClamp10 software (Molecular Devices, Sunnyvale, CA) 2 days after cRNA injection as described in the section above. […] We recorded currents in response to voltage pulses between −80 mV and +40 mV at 10 or 20 mV intervals from a holding potential of −80 mV, to yield current-voltage relationships and examine activation kinetics. To calculate the voltage dependence of activation (V0.5), tail currents were recorded at a voltage pulse of −50 mV immediately following prepulse voltages between −80 mV and +40 mV. […]

Kv1.1-L328V channels = molecular target: T3, Kv1.1-L328V channels (Homo sapiens, UniProt Q09470, L328V); test: TEVC of oocytes expressing 100% Kv1.1-L328V; format: cell-based; details: compound 1 µM
T3 construct: expressed in transfected cells; host or cells: Xenopus laevis oocytes
Text: (§2) EA1 mutant G311D is in the S4-5 linker of Kv1.1 (Fig. 5a) and produces a 65% prepulse current reduction both in Kv1.1-G311D and in Kv1.1/Kv1.1-G311D channels[43],[44]; either channel type was minimally responsive to the plant extracts tested (Supplementary Figs. 3 and 4). EA1 mutant L328V (which is associated with tetany and hypomagnesemia) is located in the intracellular end of Kv1.1 S5 (Fig. 5a) and results in complete current loss in a dominant negative manner, i.e., Kv1.1-L328V and Kv1.1/Kv1.1-L328V channels are each nonfunctional. The traditional ataxia remedy plant extracts were unable to rescue Kv1.1-L328V or Kv1.1/Kv1.1-L328V function (Supplementary Figs. 5 and 6). EA1 mutant V408A is in the intracellular-proximal end of Kv1.1 S6 (Fig. 5a) and reduces current, speeds deactivation, and increases C-type inactivation of Kv1.1[46]. Here, Native American ataxia remedy extracts had relatively minor effects on Kv1.1-V408A activity, with nettle and Pacific ninebark (roots or leaves) inducing hyperpolarizing shifts in EM, and Pacific ninebark leaves inducing a negative shift in the voltage dependence of activation, although this was not quantifiable due to the very small tail currents (Supplementary Fig. 7). Effects of the extracts on Kv1.1/Kv1.1-V408A activity were also relatively minor (Supplementary Fig. 8). […]
as §1, with “mV. We analyzed data using Clampfit (Molecular Devices) and Graphpad Prism software (GraphPad, San Diego, CA, USA), stating values as mean ± SEM.” for “mV.”

Kv1.1-E283K channels = molecular target: T4, Kv1.1-E283K channels (Homo sapiens, UniProt Q09470, E283K); test: TEVC of oocytes injected with 100% Kv1.1-E283K cRNA; format: cell-based; details: compound 1 µM
T4 construct: expressed in transfected cells; host or cells: Xenopus laevis oocytes

Kv1.1-V408A channels = molecular target: T5, Kv1.1-V408A channels (Homo sapiens, UniProt Q09470, V408A); test: TEVC of oocytes expressing 100% Kv1.1-V408A; format: cell-based; details: compound 1 µM
T5 construct: expressed in transfected cells; host or cells: Xenopus laevis oocytes
Text: as §2
as §1, with “mV. We analyzed data using Clampfit (Molecular Devices) and Graphpad Prism software (GraphPad, San Diego, CA, USA), stating values as mean ± SEM.” for “mV.”

[2] = dose response, Fig. 4, read-out: EC50 for ΔV0.5activation

T1 sequence (Q09470 whole entry): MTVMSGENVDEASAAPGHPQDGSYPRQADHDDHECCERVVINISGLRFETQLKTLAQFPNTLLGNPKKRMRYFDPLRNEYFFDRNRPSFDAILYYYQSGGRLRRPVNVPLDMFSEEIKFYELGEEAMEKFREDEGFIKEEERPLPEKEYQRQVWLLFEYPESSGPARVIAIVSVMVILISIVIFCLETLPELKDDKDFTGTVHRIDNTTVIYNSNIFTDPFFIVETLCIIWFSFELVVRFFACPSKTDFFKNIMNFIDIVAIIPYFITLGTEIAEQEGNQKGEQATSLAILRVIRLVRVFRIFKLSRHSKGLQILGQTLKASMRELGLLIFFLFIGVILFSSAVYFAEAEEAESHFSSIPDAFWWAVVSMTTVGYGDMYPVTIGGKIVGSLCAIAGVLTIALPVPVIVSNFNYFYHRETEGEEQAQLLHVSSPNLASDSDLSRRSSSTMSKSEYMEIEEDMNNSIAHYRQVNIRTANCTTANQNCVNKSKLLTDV
T2 sequence (P16389 whole entry): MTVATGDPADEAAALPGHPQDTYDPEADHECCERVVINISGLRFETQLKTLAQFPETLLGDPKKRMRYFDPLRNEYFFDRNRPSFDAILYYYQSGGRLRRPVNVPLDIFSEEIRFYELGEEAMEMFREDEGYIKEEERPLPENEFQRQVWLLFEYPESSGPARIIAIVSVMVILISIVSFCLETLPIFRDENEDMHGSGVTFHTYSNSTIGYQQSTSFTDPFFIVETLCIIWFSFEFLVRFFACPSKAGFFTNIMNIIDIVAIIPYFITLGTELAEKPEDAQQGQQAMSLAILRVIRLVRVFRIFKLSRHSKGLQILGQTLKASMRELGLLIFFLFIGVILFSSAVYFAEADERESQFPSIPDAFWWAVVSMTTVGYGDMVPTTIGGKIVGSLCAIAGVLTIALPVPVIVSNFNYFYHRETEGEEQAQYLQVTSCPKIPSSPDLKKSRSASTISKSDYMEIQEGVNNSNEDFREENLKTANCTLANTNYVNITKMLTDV
T5 sequence (Q09470 whole entry V408A): as the sequence (Q09470 whole entry) above, with V408A counted along it
T3 sequence (Q09470 whole entry L328V): as the sequence (Q09470 whole entry) above, with L328V counted along it
T4 sequence (Q09470 whole entry E283K): as the sequence (Q09470 whole entry) above, with E283K counted along it

Structure (SMILES) | effect on Kv1.1 activity (wild-type human Kv1.1) | EM (unclamped oocyte membrane potential) (wild-type human Kv1.1) | Slope (wild-type human Kv1.1) | V0.5 Normalized tail current (wild-type human Kv1.1) | also measured
O=c1cccc2n1C[C@@H]1CNC[C@H]2C1 [cytisine] | did not alter Kv1.1 activity | -41.60 ± 1.77 mV | 8.15 ± 1.31 mV | -23.96 ± 1.37 mV | 
C=CC(C)(O)CCC=C(C)C (stereo not shown) [linalool] |  |  |  |  | time to peak levels in the blood [1]: under 20 min
O.Oc1cc(O)c2c(c1)O[C@H](c1ccc(O)c(O)c1)[C@@H](O)C2 [catechin hydrate] | did not alter Kv1.1 activity | -31.33 ± 2.31 mV | 5.83 ± 0.38 mV | -14.70 ± 0.44 mV | 
O=C1CCC[C@@H]2[C@H]3CCC[N+]4([O-])CCC[C@@H](CN12)[C@@H]34 (stereo partly shown) [oxymatrine] | no effect | -39.88 ± 2.34 mV | 8.73 ± 0.24 mV | -21.86 ± 0.64 mV | 
C=C[C@@]1(C)C=C2CC[C@@H]3[C@](C)(CCC[C@@]3(C)C(=O)O)[C@H]2CC1 [Pimaric acid] |  |  |  |  | increase of wild-type Kv1.1 currents (wild-type Kv1.1): up to eightfold
O=c1c(O)c(-c2ccc(O)cc2)oc2cc(O)cc(O)c12 [kaempferol] | did not alter Kv1.1 activity | -45.25 ± 1.83 mV | 8.68 ± 0.87 mV | -22.40 ± 0.84 mV | 
C[C@@H]1O[C@@H](OC[C@H]2O[C@@H](Oc3c(-c4ccc(O)c(O)c4)oc4cc(O)cc(O)c4c3=O)[C@H](O)[C@@H](O)[C@@H]2O)[C@H](O)[C@H](O)[C@H]1O [rutin] | lesser but still robust opening effect | -56.75 ± 0.28 mV | 11.79 ± 2.88 mV | -31.59 ± 3.22 mV | EC50 (wild-type human Kv1.1; [2]): 385 ± 12 nM; EC50 (wild-type human Kv1.1; oocytes expressing wild-type Kv1.1, read-out: EC50 for hyperpolarization of EM): 150 ± 38 nM; EC50 (wild-type human Kv1.2; [2]): 72 ± 16 nM; EC50 (wild-type human Kv1.2; oocytes expressing Kv1.2, read-out: EC50 for hyperpolarization of EM): 406 ± 62 nM; effect on channel activity (Kv1.1-L328V channels): ineffective; effect on channel activity (Kv1.1-E283K channels): ineffective; effect on channel activity (Kv1.1-V408A channels): ineffective
C=CC(C)(CCC=C(C)C)OC(C)=O (stereo not shown) [linalyl acetate] |  |  |  |  | time to peak levels in the blood [1]: under 20 min
O=c1c(O)c(-c2ccc(O)c(O)c2)oc2cc(O)cc(O)c12 [quercetin] | did not alter Kv1.1 activity | -43.50 ± 1.46 mV | 6.00 ± 1.06 mV | -25.12 ± 1.81 mV | 
